# Assay results from ChEMBL document CHEMBL2417521, “Class A G-protein-coupled receptor (GPCR) dimers and bivalent ligands” (J Med Chem, 2013).
# Experiments:
# [1] = target: Dopamine receptor D2L/neurotensin receptor NTS1 (Homo sapiens) (UniProt P14416+P30989); assay: Ratio of Ki for D2L/NTS1 (unknown origin) expressed in HEK293 cell membrane in presence of neurotensin to Ki for D2L/NTS1 (unknown origin) expressed in HEK293 cell membrane in absence of neurotensin; type: cell-based
# [2] = test system: HEK293; assay: Selectivity ratio of EC50 for mu/kappa opioid receptor in HEK293 cells to EC50 for mu opioid receptor in HEK293 cells; type: cell-based; conditions: Homo sapiens
Structure (SMILES),Ratio Ki [1],Ratio EC50 [2]
CCCN(CCCCNC(=O)c1cnn2ccccc12)C1Cc2ccccc2C1,34,–
O=C(N[C@@H]1CC[C@@]2(O)[C@H]3Cc4ccc(O)c5c4[C@@]2(CCN3CC2CC2)[C@H]1O5)c1ccc2ccccc2c1,–,1000
